Experimental data taken from US20240391904A1, “DIHYDROPYRIMIDINE BASED COMPOUND, PREPARATION METHOD THEREFOR AND USE OF THEREOF” (CHENGDU SHIBEIKANG BIOMEDICAL TECHNOLOGY CO., LTD., priority 2021, published 2024).
Marks after values point to notes of the source that are not given here.

Key:
[1] = system: KM mice; test: Mouse cough test (ammonia-induced coughing); type: in vivo; conditions: for duration of the cough suppression action / cough suppressing effect compared with the positive compound: 30 mg/kg; for duration of the cough suppression action: 30 to 120 min after administration; for Number of Coughs (time): mice; for reduction in the number of coughs at 3 mg/kg: compared with model group
Text: Compounds of Example 1-24 (synthesized in the inventor's laboratory), positive control drug (gefapixant, batch No: 01030-210326-2-1, purchased from Holder Pharmaceuticals), the compound of Comparative Example 1 (synthesized in the inventor's laboratory).
Healthy adult KM mice, half of them are male and half of them are female, 6 per group, weighing about 28-30 g.
Most of the animal coughing models currently reported in the literatures use mechanical, chemical and electrical stimulations to stimulate the nerves and receptors of the animals to trigger coughing. According to the characteristics of the candidate compounds and the existing similar target compounds for reference, the method of concentrated ammonia induction was initially chosen to establish the cough modeling test in mice.
Preparation of 50% ammonia solution: 2.5 ml of ammonia was dissolved in […] of a 0.9% sodium chloride solution for injection and mixed evenly.
Preparation of a solution of the compound of Comparative Example 1: 9 mg of the compound of Comparative Example 1 was weighed and dissolved in 3 ml of a 0.5% CMC-Na solution, and mixed evenly to prepare a 3 mg/ml solution.
Preparation of a solution of the example compounds: 9 mg of the example compound was weighed and dissolved in 3 ml of a 0.5% CMC-Na solution, and mixed evenly to prepare a 3 mg/ml solution.
Grouping: a positive control group, a Comparative Example 1 group, Example 1 group-Example 24 group, and a model group were set up. Six KM mice were taken from each group and administered by gavage; here, the Comparative Example 1 group was given the compound of Comparative Example 1, the positive control group was given the positive control drug (gefapixant, commercially purchased), the Example groups were given the compounds prepared in the corresponding Examples, with each group given one of three dosages: 30 mg/kg, […], and 3 mg/kg; and the model group was given the same volume of 0.5% CMC-Na solution.
30 min, 60 min or 120 min after administration, the mice were placed in a 500 ml beaker with a cotton ball (weight 100±5 mg) containing 0.3 ml of 50% ammonia.
(1) Judgment criteria of coughing: coughing was manifest in contraction of abdominal muscles or chest contraction, with mouth wide opening and a coughing sound.
(2) The number of coughs (times) within 3 min was recorded with a stopwatch, and the data were statistically analyzed by software, with the data in each group shown in mean±standard deviation. A one-way analysis of variance among the groups was conducted, and P<0.05 was considered a difference having a statistical significance.

[2] = system: SD rats; test: Taste disorder test (quinine water versus tap water intake); type: in vivo, rat; conditions: for effect on the taste sense: 10 mg/kg intravenously, quinine/tap water ratio compared with vehicle group; for Quinine/tap water (%): 10 mg/kg tail intravenous injection, 0-15 min after administration, 0.3 mM quinine hydrochloride water versus tap water
Method: Compounds of Examples 1, 9, 12, 15, 16, 24 (synthesized in the laboratory of the present inventor), the positive control drug (gefapixant, batch No: 01030-210326-2-1, purchased from Holder Pharmaceuticals).
0.9% sodium chloride solution for injection, quinine hydrochloride (Quinie, batch No: C12476271)
Healthy adult SD rats, all males, weighing about 280-300 g.
Preparation of 0.3 mM quinine solution: 119.20 mg of quinine hydrochloride was weighed and dissolved in 1000 ml of tap water, and mixed evenly.
Preparation of the test sample solution: 40 mg of a test sample was dissolved in DMSO and a solution of the solubilizer HS-15 was added, mixed evenly, and 16 ml of saline was added to formulate a 2.5 mg/ml solution.
Animal and grouping: male SD rats weighed about 160-180 g each, with 10 of a similar average weight in each group, were housed in seperate cages.
Drinking habit training: each group was given normal drinking water for 30 minutes at 8:30 am and 16:30 pm every day, and no access of water for the rest of the day for 5 days, and two bottles of water were changed every day at the left and right positions.
Administration: with no access to water the night before the experiment, in the following morning the test group was given 4 mL/kg (10 mg/kg) of the test sample by tail intravenous injection, and the model group was given 4 mL/kg (10 mg/kg) of 0.5% HS-15 by intravenous injection.
The animals were allowed to drink freely for 15 min, and the amount of water consumed from the two bottles was measured to the nearest 0.1 ml.
(2) Statistical analysis of the data: the drinking volume of the quinine bitter water and tap water were recorded separately, as well as the percentage of quinine water to the tap water, and the significance of the difference between the groups was determined by ANOVA.

[3] = target: T1, human P2X3 receptor (Homo sapiens, UniProt P56373); test: In vitro bioactivity evaluation: FLIPR antagonist mode, HEK 293 cells stably transfected with human P2X3 receptor, BZATP agonist
T1 sequence (P56373 1-397): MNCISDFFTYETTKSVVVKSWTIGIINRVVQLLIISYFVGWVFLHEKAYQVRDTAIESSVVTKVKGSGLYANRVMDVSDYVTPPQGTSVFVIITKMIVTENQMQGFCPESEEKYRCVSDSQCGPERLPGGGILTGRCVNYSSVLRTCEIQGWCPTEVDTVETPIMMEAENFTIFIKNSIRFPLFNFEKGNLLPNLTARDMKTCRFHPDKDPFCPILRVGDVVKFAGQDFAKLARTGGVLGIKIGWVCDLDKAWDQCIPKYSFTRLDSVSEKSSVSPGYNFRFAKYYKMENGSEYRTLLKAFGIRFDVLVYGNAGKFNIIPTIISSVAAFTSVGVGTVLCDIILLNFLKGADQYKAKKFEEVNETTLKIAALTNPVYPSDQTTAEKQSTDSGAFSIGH
Method: Cell culture medium: DMEM high glucose; 10% FBS; 1% PenStrep.
The Petri dish was placed in an incubator for 1-3 minutes or until the cells were digested, 3 mL of a complete medium was then added to terminate the digestion, and the cell density was determined by a cell counter. • 2) After centrifugation at 1000 rpm/min for 5 min, the cells were resuspended in a growth medium and the volume of the suspension was adjusted to reach a cell density of 4×10^5 cells/mL (1×10^4 cells/25 μL). • 3) 10 μL of 5× Matrigel was added into a black microplate, and the microplate was placed in an incubator for 15 min. The microplate was removed and invertedly centrifuged at 300 g/min for 30 s to remove the 5× Matrigel.

[4] = cited from earlier work
[5] = 3 mg/kg by gavage, 60 min after administration, coughs within 3 min
[6] = 10 mg/kg by gavage, 60 min after administration, coughs within 3 min
[7] = 30 mg/kg by gavage, 30 min after administration, coughs within 3 min, ammonia-induced
[8] = 30 mg/kg by gavage, 60 min after administration, coughs within 3 min (Table 5)
[9] = 30 mg/kg by gavage, 60 min after administration, coughs within 3 min (Table 6)
[10] = 30 mg/kg by gavage, 120 min after administration, coughs within 3 min

| Compound | effect on the taste sense [2] | Quinine/tap water (%) [2] | IC50 [3] [nM] | cough suppressing efficacy at 10 mg/kg ([1]; 60 min after administration) | duration of the cough suppression action [1] | cough suppressing effect compared with the positive compound ([1]; 30 min after administration) | Number of Coughs (time) [1, 5] | Number of Coughs (time) [1, 6] | Number of Coughs (time) [1, 7] | Number of Coughs (time) [1, 8] | Number of Coughs (time) [1, 9] | Number of Coughs (time) [1, 10] | reduction in the number of coughs at 3 mg/kg ([1]; 60 min after administration) | primary efficacy endpoint ([4]; 15 mg twice a day) | 24-hour cough frequency ([4]; 45 mg twice a day, Week 12 (COUGH-1) and Week 24 (COUGH-2), compared to placebo) | discontinuation due to adverse events ([4]; 45 mg) | taste-related adverse events ([4]; 45 mg) |
| --- | --- | --- | --- | --- | --- | --- | --- | --- | --- | --- | --- | --- | --- | --- | --- | --- | --- |
| CC(C)(Cn1c(=O)cc(Nc2ccc(Oc3ccccn3)cc2)n(Cc2ccc(Cl)cc2)c1=O)C(=O)NS(C)(=O)=O [Compound 12] | little or no effect on the taste sense | 37.18%^Δ | < 10 | improved cough suppressing efficacy than the positive control drug | significantly prolonged compared with that of the compound of Comparative Example 1 | stronger than that of the positive compound | 33.17 time | 21.17**^Δ time | 15.67** time | 17.17** time | 17.17** time | 20.17*^Δ time |  |  |  |  |  |
| C[C@@H](Cn1c(=O)cc(Nc2ccc(Oc3ccccn3)cc2)n(Cc2ccc(Cl)cc2)c1=O)C(=O)NS(C)(=O)=O [Compound 9] | little or no effect on the taste sense | 39.84%^Δ | 10.1 to 50 | improved cough suppressing efficacy than the positive control drug | significantly prolonged compared with that of the compound of Comparative Example 1 | stronger than that of the positive compound | 25.37** time | 19.54**^Δ time | 13.62** time | 16.33** time | 16.33** time | 23.83**^Δ time | statistically significant (P<0.01) reduction in the number of coughs |  |  |  |  |
| CS(=O)(=O)NC(=O)C1(Cn2c(=O)cc(Nc3ccc(Oc4ccccn4)cc3)n(Cc3ccc(Cl)cc3)c2=O)CC1 [Compound 15] | little or no effect on the taste sense | 40.22%^Δ | 10.1 to 50 | improved cough suppressing efficacy than the positive control drug | significantly prolonged compared with that of the compound of Comparative Example 1 | stronger than that of the positive compound | 24.83** time | 20.83**^Δ time | 18.64** time | 16.33** time | 16.33** time | 23.83**^Δ time | statistically significant (P<0.01) reduction in the number of coughs |  |  |  |  |
| COC(=O)[C@@H](C)Cn1c(=O)cc(Nc2ccc(Oc3cnccn3)cc2)n(Cc2ccc(Cl)cc2)c1=O [Compound 1] | little or no effect on the taste sense | 41.48%^Δ | < 10 |  |  | stronger than that of the positive compound |  |  | 15.33** time |  |  |  |  |  |  |  |  |

Further lines, with some results ahead:

| effect on the taste sense [2] | Quinine/tap water (%) [2] | IC50 [3] [nM] | Compound | cough suppressing efficacy at 10 mg/kg ([1]; 60 min after administration) | duration of the cough suppression action [1] | cough suppressing effect compared with the positive compound ([1]; 30 min after administration) | Number of Coughs (time) [1, 5] | Number of Coughs (time) [1, 6] | Number of Coughs (time) [1, 7] | Number of Coughs (time) [1, 8] | Number of Coughs (time) [1, 9] | Number of Coughs (time) [1, 10] | reduction in the number of coughs at 3 mg/kg ([1]; 60 min after administration) | primary efficacy endpoint ([4]; 15 mg twice a day) | 24-hour cough frequency ([4]; 45 mg twice a day, Week 12 (COUGH-1) and Week 24 (COUGH-2), compared to placebo) | discontinuation due to adverse events ([4]; 45 mg) | taste-related adverse events ([4]; 45 mg) |
| --- | --- | --- | --- | --- | --- | --- | --- | --- | --- | --- | --- | --- | --- | --- | --- | --- | --- |
| little or no effect on the taste sense | 39.61%^Δ | < 10 | C[C@@H](Cn1c(=O)cc(Nc2ccc(Oc3cccc(F)n3)cc2)n(Cc2ccc(Cl)cc2)c1=O)C(=O)NS(C)(=O)=O [Compound 24] | improved cough suppressing efficacy than the positive control drug | significantly prolonged compared with that of the compound of Comparative Example 1 | stronger than that of the positive compound | 25.45** time | 24.14**^Δ time | 17.07** time | 21.33** time | 21.33** time | 25.14**^Δ time | statistically significant (P<0.01) reduction in the number of coughs |  |  |  |  |
| significant effect on the taste sense | 79.01%** |  | COc1cc(C(C)C)c(Oc2cnc(N)nc2N)cc1S(N)(=O)=O [Positive control, gefapixant, reference compound] | did not have a significant effect in reducing coughs |  |  |  | 38.83 time | 20.33* time | 23.83** time |  |  |  | not met | statistically significant reduction | higher frequency | higher incidence |
| little or no effect on the taste sense | 42.53%^Δ | < 10 | C[C@@H](Cn1c(=O)cc(Nc2ccc(Oc3ncccc3F)cc2)n(Cc2ccc(Cl)cc2)c1=O)C(=O)NS(C)(=O)=O [Compound 16, (S)-3-(3-(4-chlorobenzyl)-4-(4-(3-(3-fluoropyridin-2-yl)oxyphenyl)amino)-2,6-dioxo-3,6-dihydropyrimidin-1(2H)yl)-2-methyl-N-(methylsulfonyl)propionamide group] | improved cough suppressing efficacy than the positive control drug | significantly prolonged compared with that of the compound of Comparative Example 1 |  | 23.81** time | 15.13**^Δ time | 19.34** time | 16.11** time | 16.11** time | 18.13**^Δ time | statistically significant (P<0.01) reduction in the number of coughs |  |  |  |  |
